Data published in publication PMC10817531, “Chlorinated Enyne Fatty Acid Amides from a Marine Cyanobacterium: Discovery of Taveuniamides L-M and Pharmacological Characterization of Taveuniamide F as a GPCR Antagonist with CNR1 Selectivity” (Marine Drugs, 2023).
pIC50, pKi: −log10 of the molar value.

What was measured:
CRTH2 = target: T1, CRTH2 (Homo sapiens, UniProt Q9Y5Y4); experiment: PathHunter β-arrestin GpcrMAX assay; type: cell-based
T1 construct: purchased DiscoveRx (Eurofins) gpcrMAX PathHunter β-arrestin panel
Experimental: (§1) GpcrMAX panel biosensor assays were used to characterize taveuniamide F (4, 20 µM) (agonist and antagonist mode). The experiments were carried out by DiscoveRx Corporation (Fremont, CA, USA) as described before, using PathHunter β-arrestin enzyme fragment complementation (EFC) technology.

PTGER4 = target: T2, PTGER4 (Homo sapiens, UniProt P35408); experiment: PathHunter β-arrestin GpcrMAX assay; type: cell-based
T2 construct: purchased DiscoveRx (Eurofins) gpcrMAX PathHunter β-arrestin panel
Experimental: as §1

CCR4 = target: T3, CCR4 (Homo sapiens, UniProt P51679); experiment: PathHunter β-arrestin GpcrMAX assay; type: cell-based
T3 construct: purchased DiscoveRx (Eurofins) gpcrMAX PathHunter β-arrestin panel
Experimental: as §1

GCGR = target: T4, GCGR (Homo sapiens, UniProt P47871); experiment: PathHunter β-arrestin GpcrMAX assay; type: cell-based
T4 construct: purchased DiscoveRx (Eurofins) gpcrMAX PathHunter β-arrestin panel
Experimental: as §1

TRHR = target: T5, TRHR (Homo sapiens, UniProt P34981); experiment: PathHunter β-arrestin GpcrMAX assay; type: cell-based
T5 construct: purchased DiscoveRx (Eurofins) gpcrMAX PathHunter β-arrestin panel
Experimental: as §1

CXCR3 = target: T6, CXCR3 (Homo sapiens, UniProt P49682); experiment: PathHunter β-arrestin GpcrMAX assay; type: cell-based
T6 construct: purchased DiscoveRx (Eurofins) gpcrMAX PathHunter β-arrestin panel
Experimental: as §1

AVPR2 = AVPR2 (Homo sapiens, UniProt P30518); experiment: PathHunter β-arrestin GpcrMAX assay; type: cell-based
Experimental: as §1

PTGER3 = target: T7, PTGER3 (Homo sapiens, UniProt P43115); experiment: PathHunter β-arrestin GpcrMAX assay; type: cell-based
T7 construct: purchased DiscoveRx (Eurofins) gpcrMAX PathHunter β-arrestin panel
Experimental: as §1

EDNRB = target: T8, EDNRB (Homo sapiens, UniProt P24530); experiment: PathHunter β-arrestin GpcrMAX assay; type: cell-based
T8 construct: purchased DiscoveRx (Eurofins) gpcrMAX PathHunter β-arrestin panel
Experimental: as §1

AGTR1 = AGTR1 (Homo sapiens, UniProt P30556); experiment: PathHunter β-arrestin GpcrMAX assay; type: cell-based
Experimental: as §1

CALCRL-RAMP3 = CALCRL-RAMP3 (Homo sapiens, UniProt O60896+Q16602); experiment: PathHunter β-arrestin GpcrMAX assay; type: cell-based
Experimental: as §1

C5aR1 = C5aR1 (Homo sapiens, UniProt P21730); experiment: PathHunter β-arrestin GpcrMAX assay; type: cell-based
Experimental: as §1

EDG5 = target: T9, EDG5 (Homo sapiens, UniProt O95136); experiment: PathHunter β-arrestin GpcrMAX assay; type: cell-based
T9 construct: purchased DiscoveRx (Eurofins) gpcrMAX PathHunter β-arrestin panel
Experimental: as §1

PTGER2 = target: T10, PTGER2 (Homo sapiens, UniProt P43116); experiment: PathHunter β-arrestin GpcrMAX assay; type: cell-based
T10 construct: purchased DiscoveRx (Eurofins) gpcrMAX PathHunter β-arrestin panel
Experimental: as §1

EDG4 = target: T11, EDG4 (Homo sapiens, UniProt Q9HBW0); experiment: PathHunter β-arrestin GpcrMAX assay; type: cell-based
T11 construct: purchased DiscoveRx (Eurofins) gpcrMAX PathHunter β-arrestin panel
Experimental: as §1

EDG1 = target: T12, EDG1 (Homo sapiens, UniProt P21453); experiment: PathHunter β-arrestin GpcrMAX assay; type: cell-based
T12 construct: purchased DiscoveRx (Eurofins) gpcrMAX PathHunter β-arrestin panel
Experimental: as §1

GALR1 = target: T13, GALR1 (Homo sapiens, UniProt P47211); experiment: PathHunter β-arrestin GpcrMAX assay; type: cell-based
T13 construct: purchased DiscoveRx (Eurofins) gpcrMAX PathHunter β-arrestin panel
Experimental: as §1

F2RL1 = target: T14, F2RL1 (Homo sapiens, UniProt P55085); experiment: PathHunter β-arrestin GpcrMAX assay; type: cell-based
T14 construct: purchased DiscoveRx (Eurofins) gpcrMAX PathHunter β-arrestin panel
Experimental: as §1

CXCR6 = target: T15, CXCR6 (Homo sapiens, UniProt O00574); experiment: PathHunter β-arrestin GpcrMAX assay; type: cell-based
T15 construct: purchased DiscoveRx (Eurofins) gpcrMAX PathHunter β-arrestin panel
Experimental: as §1

CCKBR = target: T16, CCKBR (Homo sapiens, UniProt P32239); experiment: PathHunter β-arrestin GpcrMAX assay; type: cell-based
T16 construct: purchased DiscoveRx (Eurofins) gpcrMAX PathHunter β-arrestin panel
Experimental: as §1

ADRA1B = target: T17, ADRA1B (Homo sapiens, UniProt P35368); experiment: PathHunter β-arrestin GpcrMAX assay; type: cell-based
T17 construct: purchased DiscoveRx (Eurofins) gpcrMAX PathHunter β-arrestin panel
Experimental: as §1

BDKRB2 = BDKRB2 (Homo sapiens, UniProt P30411); experiment: PathHunter β-arrestin GpcrMAX assay; type: cell-based
Experimental: as §1

GPR92 = target: T18, GPR92 (Homo sapiens, UniProt Q9H1C0); experiment: PathHunter β-arrestin GpcrMAX assay; type: cell-based
T18 construct: purchased DiscoveRx (Eurofins) gpcrMAX PathHunter β-arrestin panel
Experimental: as §1

GPR109A = target: T19, GPR109A (Homo sapiens, UniProt Q8TDS4); experiment: PathHunter β-arrestin GpcrMAX assay; type: cell-based
T19 construct: purchased DiscoveRx (Eurofins) gpcrMAX PathHunter β-arrestin panel
Experimental: as §1

SSTR1 = target: T20, SSTR1 (Homo sapiens, UniProt P30872); experiment: PathHunter β-arrestin GpcrMAX assay; type: cell-based
T20 construct: purchased DiscoveRx (Eurofins) gpcrMAX PathHunter β-arrestin panel
Experimental: as §1

TSHR(L) = target: T21, TSHR(L) (Homo sapiens, UniProt P16473); experiment: PathHunter β-arrestin GpcrMAX assay; type: cell-based
T21 construct: purchased DiscoveRx (Eurofins) gpcrMAX PathHunter β-arrestin panel
Experimental: as §1

C5L2 = C5L2 (Homo sapiens, UniProt Q9P296); experiment: PathHunter β-arrestin GpcrMAX assay; type: cell-based
Experimental: as §1

FFAR1 = target: T22, FFAR1 (Homo sapiens, UniProt O14842); experiment: PathHunter β-arrestin GpcrMAX assay; type: cell-based
T22 construct: purchased DiscoveRx (Eurofins) gpcrMAX PathHunter β-arrestin panel
Experimental: as §1

PTHR2 = target: T23, PTHR2 (Homo sapiens, UniProt P49190); experiment: PathHunter β-arrestin GpcrMAX assay; type: cell-based
T23 construct: purchased DiscoveRx (Eurofins) gpcrMAX PathHunter β-arrestin panel
Experimental: as §1

CRHR2 = target: T24, CRHR2 (Homo sapiens, UniProt Q13324); experiment: PathHunter β-arrestin GpcrMAX assay; type: cell-based
T24 construct: purchased DiscoveRx (Eurofins) gpcrMAX PathHunter β-arrestin panel
Experimental: as §1

EDG3 = target: T25, EDG3 (Homo sapiens, UniProt Q99500); experiment: PathHunter β-arrestin GpcrMAX assay; type: cell-based
T25 construct: purchased DiscoveRx (Eurofins) gpcrMAX PathHunter β-arrestin panel
Experimental: as §1

TACR2 = target: T26, TACR2 (Homo sapiens, UniProt P21452); experiment: PathHunter β-arrestin GpcrMAX assay; type: cell-based
T26 construct: purchased DiscoveRx (Eurofins) gpcrMAX PathHunter β-arrestin panel
Experimental: as §1

LHCGR = target: T27, LHCGR (Homo sapiens, UniProt P22888); experiment: PathHunter β-arrestin GpcrMAX assay; type: cell-based
T27 construct: purchased DiscoveRx (Eurofins) gpcrMAX PathHunter β-arrestin panel
Experimental: as §1

HRH3 = target: T28, HRH3 (Homo sapiens, UniProt Q9Y5N1); experiment: PathHunter β-arrestin GpcrMAX assay; type: cell-based
T28 construct: purchased DiscoveRx (Eurofins) gpcrMAX PathHunter β-arrestin panel
Experimental: as §1

[1] = target: T29, human recombinant cannabinoid CNR1 receptors (Homo sapiens, UniProt P21554); experiment: Competitive radioligand binding assay ([3H]SR141716A); conditions: 2 nM [3H]SR141716A, 60 min, 37 °C, Chem-1 cell membranes
T29 construct: host or cells: rat hematopoietic Chem-1 cells (membrane homogenate)
Experimental: (a) Competitive radioligand binding assay of 4 to CNR1. Membrane homogenate of rat hematopoietic Chem-1 cells expressing human recombinant CNR1 receptors is incubated with 2 nM [3H]SR141716A for 60 min at 37 °C. […] (b) Effect of 4 in CNR1 cAMP functional assay in agonist and antagonist mode. Experiments were carried out as technical duplicates. Data are presented as mean ± SD (n = 2).
The assay was carried out by Eurofins Panlabs Discovery Services (New Taipei City, Taiwan). Human recombinant cannabinoid CNR1 receptors expressed in rat hematopoietic Chem-1 cells were used in modified HEPES buffer (50 mM HEPES, pH 7.4, 5 mM MgCl2, 1 mM CaCl2, 0.2% BSA). A 5 µg aliquot of membrane homogenate was incubated with 2 nM [^3H]SR141716A for 60 min at 37 °C. […] Membranes were filtered and washed four times and the filters were counted to determine [^3H]SR141716A as specifically bound. Compound 4 was screened at 8 concentrations, where the highest concentration was 50 µM. […] The experiments were carried out as technical duplicates.

T29 sequence (P21554 whole entry): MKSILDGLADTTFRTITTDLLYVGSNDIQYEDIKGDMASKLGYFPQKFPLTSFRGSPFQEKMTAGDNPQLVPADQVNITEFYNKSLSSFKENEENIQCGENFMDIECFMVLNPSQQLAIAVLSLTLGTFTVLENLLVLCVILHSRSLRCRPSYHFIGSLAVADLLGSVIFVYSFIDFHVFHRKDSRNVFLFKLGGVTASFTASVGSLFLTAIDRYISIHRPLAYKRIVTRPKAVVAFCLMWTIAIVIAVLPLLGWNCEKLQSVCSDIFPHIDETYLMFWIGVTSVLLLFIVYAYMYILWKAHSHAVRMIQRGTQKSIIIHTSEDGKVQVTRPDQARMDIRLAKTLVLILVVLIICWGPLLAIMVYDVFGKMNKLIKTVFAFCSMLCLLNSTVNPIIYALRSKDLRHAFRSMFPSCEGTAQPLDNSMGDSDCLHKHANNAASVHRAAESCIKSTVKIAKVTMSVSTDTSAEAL
T6 sequence (P49682 whole entry): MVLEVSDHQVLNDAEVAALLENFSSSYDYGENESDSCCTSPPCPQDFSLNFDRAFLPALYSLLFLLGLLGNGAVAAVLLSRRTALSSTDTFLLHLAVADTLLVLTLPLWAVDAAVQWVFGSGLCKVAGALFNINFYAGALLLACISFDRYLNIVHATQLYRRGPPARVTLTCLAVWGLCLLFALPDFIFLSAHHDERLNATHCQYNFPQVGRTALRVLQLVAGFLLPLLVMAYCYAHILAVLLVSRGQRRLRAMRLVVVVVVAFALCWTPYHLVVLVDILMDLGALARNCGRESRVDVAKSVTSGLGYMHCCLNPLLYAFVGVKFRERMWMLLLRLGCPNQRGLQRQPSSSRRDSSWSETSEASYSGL
T22 sequence (O14842 whole entry): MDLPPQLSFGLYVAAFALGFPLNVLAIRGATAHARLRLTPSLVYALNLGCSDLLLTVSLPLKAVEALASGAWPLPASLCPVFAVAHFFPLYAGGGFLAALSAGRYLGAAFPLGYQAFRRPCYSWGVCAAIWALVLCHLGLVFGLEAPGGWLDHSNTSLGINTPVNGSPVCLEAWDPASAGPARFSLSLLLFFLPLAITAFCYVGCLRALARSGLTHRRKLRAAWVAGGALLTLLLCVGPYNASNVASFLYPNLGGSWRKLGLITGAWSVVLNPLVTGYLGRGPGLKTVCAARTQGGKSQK
T24 sequence (Q13324 whole entry): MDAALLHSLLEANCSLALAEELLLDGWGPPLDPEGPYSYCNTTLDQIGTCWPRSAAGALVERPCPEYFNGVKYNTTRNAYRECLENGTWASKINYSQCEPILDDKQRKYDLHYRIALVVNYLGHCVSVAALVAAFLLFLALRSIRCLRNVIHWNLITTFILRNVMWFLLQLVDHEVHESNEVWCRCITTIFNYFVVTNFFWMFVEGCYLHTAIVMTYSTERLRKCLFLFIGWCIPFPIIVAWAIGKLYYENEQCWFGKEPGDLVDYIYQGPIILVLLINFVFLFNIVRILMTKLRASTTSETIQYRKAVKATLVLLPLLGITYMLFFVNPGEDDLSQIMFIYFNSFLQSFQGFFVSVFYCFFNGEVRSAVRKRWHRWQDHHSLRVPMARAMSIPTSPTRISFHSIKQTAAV
Chain of AVPR2 (P30518 whole entry): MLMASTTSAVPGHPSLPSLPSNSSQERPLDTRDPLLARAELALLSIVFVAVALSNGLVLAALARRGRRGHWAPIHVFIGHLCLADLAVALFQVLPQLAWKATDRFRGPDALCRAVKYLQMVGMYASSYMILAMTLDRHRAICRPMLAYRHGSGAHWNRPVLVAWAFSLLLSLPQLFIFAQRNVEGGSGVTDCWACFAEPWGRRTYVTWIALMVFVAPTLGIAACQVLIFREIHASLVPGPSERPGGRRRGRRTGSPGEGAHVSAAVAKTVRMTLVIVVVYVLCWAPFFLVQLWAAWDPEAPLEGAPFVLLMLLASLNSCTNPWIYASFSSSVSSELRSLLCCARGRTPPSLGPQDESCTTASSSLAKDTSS
T1 sequence (Q9Y5Y4 whole entry): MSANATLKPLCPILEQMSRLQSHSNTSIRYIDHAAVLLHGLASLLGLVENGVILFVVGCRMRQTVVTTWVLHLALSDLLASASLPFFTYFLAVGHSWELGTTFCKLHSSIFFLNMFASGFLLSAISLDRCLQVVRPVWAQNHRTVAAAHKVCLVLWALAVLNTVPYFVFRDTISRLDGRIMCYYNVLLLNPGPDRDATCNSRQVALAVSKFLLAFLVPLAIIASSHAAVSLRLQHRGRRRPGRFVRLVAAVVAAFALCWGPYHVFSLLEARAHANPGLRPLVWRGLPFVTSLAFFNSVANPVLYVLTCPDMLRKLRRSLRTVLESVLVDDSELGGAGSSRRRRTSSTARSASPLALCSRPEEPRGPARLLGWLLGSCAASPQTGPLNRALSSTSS
T18 sequence (Q9H1C0 whole entry): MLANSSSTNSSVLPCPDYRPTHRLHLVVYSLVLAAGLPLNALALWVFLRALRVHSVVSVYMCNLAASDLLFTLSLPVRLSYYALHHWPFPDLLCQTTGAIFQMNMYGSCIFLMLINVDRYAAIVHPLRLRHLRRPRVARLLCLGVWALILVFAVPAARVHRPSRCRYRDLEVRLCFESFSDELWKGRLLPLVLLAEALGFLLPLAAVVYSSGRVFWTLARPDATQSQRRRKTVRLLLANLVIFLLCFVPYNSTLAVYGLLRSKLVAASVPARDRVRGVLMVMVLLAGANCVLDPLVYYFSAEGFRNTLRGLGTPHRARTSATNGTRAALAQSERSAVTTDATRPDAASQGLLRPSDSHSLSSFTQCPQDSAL
T27 sequence (P22888 27-699): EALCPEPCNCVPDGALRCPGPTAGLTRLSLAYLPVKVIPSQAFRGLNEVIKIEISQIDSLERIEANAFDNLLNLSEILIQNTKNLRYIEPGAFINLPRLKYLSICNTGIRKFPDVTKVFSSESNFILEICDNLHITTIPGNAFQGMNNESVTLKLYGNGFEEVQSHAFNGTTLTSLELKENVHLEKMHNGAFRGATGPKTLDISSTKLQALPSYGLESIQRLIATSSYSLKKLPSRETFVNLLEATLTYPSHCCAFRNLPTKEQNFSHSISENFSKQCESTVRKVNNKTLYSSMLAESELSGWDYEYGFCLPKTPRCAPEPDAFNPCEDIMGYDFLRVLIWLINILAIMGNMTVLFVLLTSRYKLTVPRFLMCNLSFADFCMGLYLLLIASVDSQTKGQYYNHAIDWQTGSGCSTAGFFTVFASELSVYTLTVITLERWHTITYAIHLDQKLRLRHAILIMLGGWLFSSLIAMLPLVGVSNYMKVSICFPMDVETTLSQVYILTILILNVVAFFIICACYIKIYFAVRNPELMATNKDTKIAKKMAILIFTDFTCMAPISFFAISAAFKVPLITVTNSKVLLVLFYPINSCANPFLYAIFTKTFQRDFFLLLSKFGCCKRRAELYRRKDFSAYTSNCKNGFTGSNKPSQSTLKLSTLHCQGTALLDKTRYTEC
T19 sequence (Q8TDS4 whole entry): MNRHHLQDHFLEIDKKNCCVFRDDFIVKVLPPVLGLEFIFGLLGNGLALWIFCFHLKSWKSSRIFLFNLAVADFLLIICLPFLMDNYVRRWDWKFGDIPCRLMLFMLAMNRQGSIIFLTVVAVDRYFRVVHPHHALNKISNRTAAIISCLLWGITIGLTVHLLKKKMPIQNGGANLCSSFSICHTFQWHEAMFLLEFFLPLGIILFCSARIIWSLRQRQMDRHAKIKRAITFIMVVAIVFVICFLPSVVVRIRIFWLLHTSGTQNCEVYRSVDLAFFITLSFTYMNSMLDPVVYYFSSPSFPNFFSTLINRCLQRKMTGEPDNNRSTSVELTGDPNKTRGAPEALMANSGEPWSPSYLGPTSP
T21 sequence (P16473 21-764): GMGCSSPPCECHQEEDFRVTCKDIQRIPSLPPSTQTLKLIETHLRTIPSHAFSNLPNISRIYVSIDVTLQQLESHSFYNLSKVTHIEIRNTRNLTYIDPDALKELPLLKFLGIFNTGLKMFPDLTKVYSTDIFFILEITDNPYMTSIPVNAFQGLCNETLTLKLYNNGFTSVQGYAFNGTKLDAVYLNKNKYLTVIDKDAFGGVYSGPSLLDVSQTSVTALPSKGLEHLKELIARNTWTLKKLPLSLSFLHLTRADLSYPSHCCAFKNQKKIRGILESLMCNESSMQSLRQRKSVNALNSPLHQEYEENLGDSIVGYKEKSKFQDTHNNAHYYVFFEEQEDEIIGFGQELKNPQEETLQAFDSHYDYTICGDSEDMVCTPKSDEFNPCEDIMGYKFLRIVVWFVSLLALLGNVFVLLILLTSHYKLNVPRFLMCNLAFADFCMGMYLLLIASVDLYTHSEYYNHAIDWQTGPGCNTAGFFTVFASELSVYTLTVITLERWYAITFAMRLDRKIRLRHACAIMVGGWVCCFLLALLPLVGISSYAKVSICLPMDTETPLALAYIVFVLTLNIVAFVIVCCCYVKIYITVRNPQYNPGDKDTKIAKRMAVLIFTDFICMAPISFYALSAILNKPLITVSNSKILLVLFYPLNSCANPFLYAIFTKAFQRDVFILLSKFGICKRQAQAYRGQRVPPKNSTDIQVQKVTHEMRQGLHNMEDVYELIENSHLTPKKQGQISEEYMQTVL
T25 sequence (Q99500 whole entry): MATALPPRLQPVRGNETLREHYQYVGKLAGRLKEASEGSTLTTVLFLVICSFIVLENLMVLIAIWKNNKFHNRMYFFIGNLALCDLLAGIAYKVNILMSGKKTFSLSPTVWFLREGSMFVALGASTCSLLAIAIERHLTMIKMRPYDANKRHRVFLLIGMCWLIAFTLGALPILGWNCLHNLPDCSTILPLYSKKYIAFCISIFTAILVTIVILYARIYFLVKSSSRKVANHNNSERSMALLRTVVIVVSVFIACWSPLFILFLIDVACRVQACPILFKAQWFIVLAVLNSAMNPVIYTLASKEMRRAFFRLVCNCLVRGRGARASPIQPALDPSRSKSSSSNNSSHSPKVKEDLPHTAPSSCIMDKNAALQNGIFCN

inhibition at 20 µM (CRTH2): 16.9%
inhibition at 20 µM (PTGER4): 36.5%
inhibition at 20 µM (CCR4): 58.9%
inhibition at 20 µM (GCGR): 2.2%
inhibition at 20 µM (TRHR): 42.8%
inhibition at 20 µM (CXCR3): 4.6%
inhibition at 20 µM (AVPR2): 14.4%
inhibition at 20 µM (PTGER3): -13%
inhibition at 20 µM (EDNRB): 23%
inhibition at 20 µM (AGTR1): 23.3%
inhibition at 20 µM (CALCRL-RAMP3): 19.3%
inhibition at 20 µM (C5aR1): 1.4%
inhibition at 20 µM (EDG5): 0.8%
inhibition at 20 µM (PTGER2): 4.4%
inhibition at 20 µM (EDG4): 56.3%
inhibition at 20 µM (EDG1): 33.1%
inhibition at 20 µM (GALR1): 5.7%
inhibition at 20 µM (F2RL1): -6.7%
inhibition at 20 µM (CXCR6): 33.1%
inhibition at 20 µM (CCKBR): 10.2%
inhibition at 20 µM (ADRA1B): 22.9%
inhibition at 20 µM (BDKRB2): 8.4%
inhibition at 20 µM (GPR92): 56.5%
inhibition at 20 µM (GPR109A): 5.5%
inhibition at 20 µM (SSTR1): 38.2%
inhibition at 20 µM (TSHR(L)): 7.6%
inhibition at 20 µM (C5L2): 24.1%
inhibition at 20 µM (FFAR1): 42%
inhibition at 20 µM (PTHR2): 30.4%
inhibition at 20 µM (CRHR2): 12%
inhibition at 20 µM (EDG3): 21%
inhibition at 20 µM (TACR2): 59.3%
inhibition at 20 µM (LHCGR): 56.3%
inhibition at 20 µM (HRH3): 5%
pIC50 [1]: 4.42
pKi [1]: 4.47
Compound: CC(=O)N[C@@H](CCCC#C/C=C/Cl)CCCCCCC(Cl)Cl [Compound 4, taveuniamide F]
